Data: US8158621B2, “Methods of treating or preventing autoimmune diseases with 2,4-pyrimidinediamine compounds” (Rigel Pharmaceuticals, Inc., priority 2002, dated 2012)
Read-outs that look alike come from different tables or passages of the source.

Assays:
Primary T-cells [1] = test: Primary T-cell cytokine production (αCD3/αCD28): IL-2; type: cell-based, human; conditions: read-out: 1° T-Cell IL2 IC50
Procedure, shortened: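 IL-2 in 18 hr supernatants measured by ELISA against a standard curve or by Luminex multiplex, with IC50 derived relative to solvent-only wells. Non-adherent human donor lymphocytes were preincubated 30 min with compound, then moved to wells coated with αCD3 (5 μg/ml) and αCD28 (10 μg/ml).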

Primary T-cells [2] = test: Primary T-cell cytokine production (αCD3/αCD28): GMSCF; type: cell-based, human; conditions: read-out: 1° T-Cell GMSCF IC50
Description: (§1) 2E8-4E8 PBMC or proliferating T cells grown in rIL-2 from healthy human donors were suspended in PBS were spun down (1500 rpm, 8-10 minutes) and resuspended in 100 ml RPMI Complete media (1% Pen-Strep, 1% L-Glutamine, 10 mM HEPES). The cells were plated in T175 flasks (37° C., 5% CO2) and monocytes were allowed to adhere for 2-3 hours. After monocyte attachment, non-adherent cells were harvested, counted by hemocytometer, washed several times with PBS then resuspended in Yssels Complete Media (Modified IMDM Media with 1% Human AB Serum, 1% Pen-Strep, 1% L-Glutamine, 10 mM HEPES) at […]. 90 uL of the cell dilution were then added to compounds diluted to 2× in Yssel's media and incubated for 30 minutes at 37° C. (5% CO2). After this preincubation step the compound/cell mixture was transferred to stimulation plates, as described below.
Stimulation plates were prepared by coating 96 well plates with 5 μg/ml αCD3 (BD PharMingen, Catalog #555336)+10 μg/ml αCD28 (Beckman Coulter, Catalog #IM1376) in PBS (no Ca^2+/Mg^2+) at 37° C. (5% CO2) for at 3-5 hours. After incubation with the stimulation antibodies, the cocktail was removed and the plates washed 3 times with PBS prior to addition of the primary T cell/compound mixture.
(§2) The compound/cell mixture was transferred to the stimulation plates and incubated for 18 hr at 37° C. (5% CO2). After the cell stimulation, ˜150 μl supernatant were transferred from each well into 96-well filter plates (Coming PVDF Filter Plates) spun down (2000 rpm, 2-3 minutes) and either used immediately for ELISA or LUMINEX measurements or frozen down at −80° C. for future use.
(§3) Luminex immunoassay multiplexing for TNF, IL-2, GMSCF, IL-4 and IFNg was performed essentially as described by the manufacturer (Upstate Biotechnology). Essentially 50 uL of sample was diluted into 50 uL assay diluent and 50 uL incubation buffer, then incubated with 100 uL of the diluted detection antibody for 1 hr at RT in the dark. The filter plate was washed 2× in Wash Buffer, then incubated with 100 uL of the diluted secondary reagent (SAV-RPE) for 30 min at RT in the dark. Finally the plates were washed 3 times and bead identification and RPE fluorescent measured by the Luminex instrument.
(§4) Varied concentrations of compound were compared to solvent only to determine the inhibition of T-cell activation IC50 of each compound.

Primary T-cells [3] = test: Primary T-cell cytokine production (αCD3/αCD28): TNF; type: cell-based, human; conditions: read-out: 1° T-Cell TNF IC50
Description: as §1
(5% CO2) for at 3-5 hours. After incubation with the stimulation antibodies, the cocktail was removed and the plates washed 3 times with PBS prior to addition of the primary T cell/compound mixture.
as §2, §3, §4

[4] = system: basophil cells (human peripheral blood); test: Basophil ionomycin activation: histamine release assay; type: cell-based
Procedure, shortened: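 Dextran-sedimented leukocytes from peripheral blood of dust-mite-allergic human donors were incubated with compound (8 concentrations, 0.5% DMSO, triplicate) and then stimulated with 2 μM ionomycin stock (20 μl added) for 30 min at 37° C. Histamine released into the supernatant was measured by ELISA.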

[5] = system: bone marrow derived mast cells (BMMC); test: BMMC high cell density IgE activation: hexosaminidase; type: cell-based, mouse
Syk kinase = biological target: T1, Syk kinase (Homo sapiens, UniProt P43405); test: Syk kinase biochemical fluorescence polarization assay; conditions: isolated Syk kinase, fluorescence polarization, 4 uM ATP
T1 construct: purchased Upstate, Lake Placid NY

[6] = basophils, ionomycin activation, histamine release, read-out: Basophils Ionomycin Histamine IC50
[7] = High Density, read-out: BMMC anti-IgE hexos
[8] = high cell density, read-out: BMMC anti-IgE Hexos.

| Compound | IC50 (Primary T-cells [1]) [µM] | IC50 (Primary T-cells [2]) [µM] | IC50 (Primary T-cells [3]) [µM] | IC50 [4, 6] [µM] | IC50 [5, 7] [µM] | IC50 (Syk kinase) [µM] | IC50 ([4]; read-out: Basophils Ionomycin Histamine) [µM] | IC50 [5, 8] [µM] |
| --- | --- | --- | --- | --- | --- | --- | --- | --- |
| CNC(=O)COc1cccc(Nc2ncc(F)c(Nc3ccc(OC(F)(F)F)c(Cl)c3)n2)c1 [Compound R920410] | 3.36 | 3.2 | 2.99 | – | – | – | – | – |
| Oc1cccc(Nc2ncc(F)c(Nc3cccc(O)c3)n2)c1 [Compound R921218] | 3.24 | – | – | > 10 | 0.133 | – | – | – |
| CNC(=O)COc1cccc(Nc2ncc(F)c(Nc3ccc4c(c3)NCCO4)n2)c1 [Compound R921219] | 0.546 | – | – | > 10 | – | 0.041 | – | – |
| Nc1cccc(Nc2ncc(F)c(Nc3cccc(N)c3)n2)c1 [Compound R921302] | 5.19 | 3.21 | 1.63 | – | – | – | > 10 | – |
| CNC(=O)COc1cccc(Nc2ncc(F)c(Nc3ccc4c(c3)NC(=O)C(F)(F)O4)n2)c1 [Compound R921303] | 1.02 | 1.18 | 0.796 | – | – | – | – | – |
| CNC(=O)COc1cccc(Nc2ncc(F)c(Nc3ccc4c(n3)NC(=O)CO4)n2)c1 [Compound R921304] | 2.77 | 1.57 | 1.5 | – | – | – | – | – |
| Fc1cnc(Nc2ccc3c(c2)OCCO3)nc1Nc1ccc2c(c1)OCCO2 [Compound R926109] | – | – | – | > 10 | 0.6 | – | – | – |
| COc1ccc(Nc2ncc(F)c(Nc3ccc(OC)c(OC)c3)n2)cc1OC [Compound R926110] | – | – | – | > 10 | 1 | – | – | – |
| COc1ccc(Nc2ncc(F)c(Nc3cccc(O)c3)n2)cc1OC [Compound R926113] | – | – | – | > 10 | 0.65 | – | – | – |
| CNC(=O)COc1cccc(Nc2ncc(F)c(Nc3cccc(O)c3)n2)c1 [Compound R926508] | 0.917 | – | – | > 10 | – | – | – | – |
| COc1cc(Nc2ncc(F)c(Nc3ccc4c(c3)NC(=O)C(C)(C)O4)n2)cc(OC)c1 [Compound R927050] | 0.928 | 1.12 | 0.6 | – | – | 0.114 | – | 0.103 |
| CC1(C)Oc2ccc(Nc3nc(Nc4cc(Cl)cc(Cl)c4)ncc3F)cc2NC1=O [Compound R927064] | > 10 | > 10 | – | – | – | 0.466 | – | 0.005 |
| OCCCn1ncc2cc(Nc3ncc(F)c(Nc4ccc(Cl)c(Cl)c4)n3)ccc21 [Compound R935391] | – | – | – | – | – | 0.223 | – | 0.25 |
| CNC(=O)COc1cccc(Nc2ncc(F)c(Nc3ccc4c(n3)NC(=O)C(C)(C)O4)n2)c1 [Compound R940347] | 1.89 | 1.61 | 0.0992 | – | – | – | – | – |
| CC1(C)Oc2ccc(Nc3ncc(F)c(Nc4ccc5c(c4)NC(=O)C(C)(C)O5)n3)cc2NC1=O [Compound R940350] | 2.99 | 2.45 | – | – | – | 0.121 | – | – |
| CC1(C)Oc2ccc(Nc3nc(Nc4ccc5cn[nH]c5c4)ncc3F)cc2NC1=O [Compound R940363] | – | – | – | – | – | 0.006 | – | – |
